Assay results from patent publication US9822115B2, “Nitrogen containing compounds and their use as antibacterial agents” (WOCKHARDT LIMITED, priority 2014, dated 2017).
pIC50: −log10 of the molar value. In brackets after ≈: the same amount, converted by molar mass. Like-named read-outs stand apart in the source and are kept apart here.

What was measured:
[1] = tested on: K. pneomoniae S48 (NDM, SHV, TEM); assay: Antibacterial activity, MIC by agar dilution (CLSI); assay type: cell-based, K. pneumoniae; conditions: Table 2, K. pneomoniae S48 (NDM, SHV, TEM)
Outline: (§1)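 Agar dilution per CLSI on Mueller Hinton agar with doubling compound dilutions, about 10^4 CFU/spot by multipoint inoculator. Plates incubated 16-20 h at 35±2° C in ambient air; procedure also gives 37° C for 18 h. MIC (mcg/ml) scored as growth or no growth.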

[2] = tested on: E. coli NCTC 13353 (CTX-M15, OXA-1); assay: as above; assay type: cell-based; conditions: E. Coli NCTC 13353 (CTX-M15, OXA-1)
Outline: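 CLSI agar dilution on Mueller Hinton agar containing doubling compound dilutions, inoculated at about 10^4 CFU/spot from fresh cultures. Plates were incubated 18 h at 37 °C in ambient air before growth scoring. MIC is reported in mcg/ml.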

E. coli NCTC 13353 = assay: Zone of inhibition, compound alone and in combination with ceftazidime (agar well); assay type: cell-based; conditions: for zone of inhibition at 0.25 µg/disc / zone of inhibition at 0.5 µg/disc / zone of inhibition at 1 µg/disc / zone of inhibition at […]: Escherichia coli, NCTC13353, E. coli NCTC 13353, read-out: Diameter of Zone of Inhibition; for zone of inhibition at 0.5 µg/disc: 0.5 μg/well; for zone of inhibition at 1 µg/disc: 1 μg/well
Description: (§2) Determination of antibacterial activity of combinations according to invention: In a typical experiment, two sets of plates containing growth media (Molten Mueller Hilton Agar) and bacterial strains were prepared. One set of plates was taken as control (without ceftazidime) and other set contained ceftazidime. The media was allowed to solidify and wells were punched later. A two-fold serial dilution range of each of the compounds according to invention was prepared and 50 μl of each of the dilution was added into the punched well. […] The Table 5 provides the antibacterial activity of the combination comprising compounds according to invention and ceftazidime.

E. coli M50 = assay: as above; assay type: cell-based; conditions: for Diameter of Zone of Inhibition: E. coli M50; for zone of inhibition at 0.5 µg/disc: 0.5 μg/well; for zone of inhibition at 1 µg/disc: 1 μg/well
Description: as §2

[3] = molecular target: T1, Class D beta-lactamase, A. baumannii NCTC 13301 (OXA 23) (Acinetobacter baumannii, UniProt Q9L4P2); assay: Beta-lactamase enzyme inhibition (nitrocefin, crude enzyme); assay type: biochemical; conditions: Class D A. baumannii NCTC 13301 (OXA 23); read-out: Beta-lactamase enzyme inhibition IC50
T1 construct: preincubated mixture of crude enzyme and the agents; endogenous in cells; host or cells: A. baumannii NCTC 13301
T1 sequence (Q9L4P2 18-273): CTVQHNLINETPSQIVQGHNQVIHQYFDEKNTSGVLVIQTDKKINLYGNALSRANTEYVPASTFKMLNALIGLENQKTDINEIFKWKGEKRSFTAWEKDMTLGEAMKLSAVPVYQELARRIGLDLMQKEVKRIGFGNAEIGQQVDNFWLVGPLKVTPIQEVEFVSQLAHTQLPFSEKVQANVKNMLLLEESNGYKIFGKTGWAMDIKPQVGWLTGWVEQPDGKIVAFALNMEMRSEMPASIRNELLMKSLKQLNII
Outline: (§3)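 Crude enzyme preincubated with inhibitor 10 min at 37 °C, then nitrocefin (100 uM) added for 5 min. Absorbance read at 485 nm; IC50 obtained from sigmoidal dose-response fit of absorbance versus concentration.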

[4] = tested on: K. pneumoniae H521 (KPC, SHV, TEM); assay: Antibacterial activity, MIC by agar dilution (CLSI); assay type: cell-based; conditions: Table 2, K. pneumoniae H521 (KPC, SHV, TEM)
Outline: as §1

[5] = tested on: T2, Class C beta-lactamase, E. coli M50 (CMY/DHA); assay type: biochemical; conditions: read-out: Beta-lactamase enzyme inhibition IC50
T2 construct: no borders, tags or purification printed
Description: Determination of enzyme inhibition activity: Concentration of the inhibitor required to inhibit 50% of enzymatic activity was measured by adding a chromogenic substrate, Nitrocefin (100 uM, 5 min) to the preincubated mixture of crude enzyme and the agents (37° C., 10 min). Absorbance was measured at 485 nm by UV-spectrophotometer. The IC50 was calculated by plotting absorbance against concentration through Sigmoidal dose response curve using Graph Pad software.
The enzyme inhibition was expressed as IC50.

[6] = molecular target: T3, Class A beta-lactamase, K. pneumoniae ATCC 700603 (SHV 18) (Klebsiella pneumoniae, UniProt P0AD64, E235K/G234A/R39S); assay: biochemical
T3 construct: preincubated mixture of crude enzyme and the agents; endogenous in cells; host or cells: K. pneumoniae ATCC 700603
T3 sequence (P0AD64 22-286 R39S/G234A/E235K): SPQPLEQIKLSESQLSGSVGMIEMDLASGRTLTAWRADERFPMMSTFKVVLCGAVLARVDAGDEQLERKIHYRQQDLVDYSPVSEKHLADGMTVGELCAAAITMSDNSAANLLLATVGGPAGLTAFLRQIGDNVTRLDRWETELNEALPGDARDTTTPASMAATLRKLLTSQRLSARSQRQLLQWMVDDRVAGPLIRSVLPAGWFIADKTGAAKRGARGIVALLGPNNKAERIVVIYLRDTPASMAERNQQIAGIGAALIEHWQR
Outline: as §3

[7] = Klebsiella pneumoniae, read-out: MIC
[8] = Escherichia coli, NCTC13353, Table 2, read-out: MIC
[9] = Compound + Ceftazidime (10 μg/ml), 0.25 μg/well
[10] = Compound + Ceftazidime (10 μg/ml)
[11] = Escherichia coli, M50, E. coli M50, Compound + Ceftazidime (10 μg/ml), 0.25 μg/well, read-out: Diameter of Zone of Inhibition
[12] = Escherichia coli, M50, E. coli M50, Compound + Ceftazidime (10 μg/ml), read-out: Diameter of Zone of Inhibition
[13] = Escherichia coli, M50, E. coli M50, Compound alone, read-out: Diameter of Zone of Inhibition

Row | SMILES | MIC [1, 7] [µg/mL] | MIC [2, 8] [µg/mL] | zone of inhibition at 0.25 µg/disc (E. coli NCTC 13353; [9]) [mm] | zone of inhibition at 0.5 µg/disc (E. coli NCTC 13353; [10]) [mm] | zone of inhibition at 1 µg/disc (E. coli NCTC 13353; [10]) [mm] | zone of inhibition at […] (E. coli NCTC 13353; [10]) [mm] | zone of inhibition at 0.5 µg/disc (E. coli NCTC 13353; Compound alone) [mm] | zone of inhibition at 1 µg/disc (E. coli NCTC 13353; Compound alone) [mm] | zone of inhibition at 0.25 µg/disc (E. coli M50; [11]) [mm] | zone of inhibition at 0.5 µg/disc (E. coli M50; [12]) [mm] | zone of inhibition at 1 µg/disc (E. coli M50; [12]) [mm] | zone of inhibition at 0.5 µg/disc (E. coli M50; [13]) [mm] | zone of inhibition at 1 µg/disc (E. coli M50; [13]) [mm] | pIC50 [3] | MIC [4, 7] [µg/mL] | pIC50 [5] | pIC50 [6] | further results
1 | C[C@@H](N)COc1ccccc1CC(=O)NNC(=O)[C@@H]1CC[C@@H]2CN1C(=O)N2OS(=O)(=O)O [Example 3, (2S,5R)-Sulfuric Acid mono-[2-(N′-{2-[2-((R)-2-amino-propoxy)-phenyl]-acetyl}-hydrazinocarbonyl)-7-oxo-1,6-diaza-bicyclo[3.2.1]oct-6-yl]ester] | 1 (≈ 2.12 µM) | 1 (≈ 2.12 µM) | 14.5 | 17.5 | 21.5 | 11 | 10 | 13 | 10.5 | 14 | 17 | 11.5 | 14 | 5.70 | 2 (≈ 4.24 µM) | 7.14 | 7.10 | Diameter of Zone of Inhibition (E. coli NCTC 13353; E. coli NCTC 13353, Compound alone, 0.25 μg/well): No growth; Diameter of Zone of Inhibition (E. coli M50; Compound + Ceftazidime (10 μg/ml), […]): No growth; Diameter of Zone of Inhibition (E. coli M50; Compound alone, 0.25 μg/well): No growth
2 | NCc1ccc(CC(=O)NNC(=O)[C@@H]2CC[C@@H]3CN2C(=O)N3OS(=O)(=O)O)cc1 [Example 12, (2S,5R)-sulfuric acid mono-[2-(N′-(4-aminomethyl-phenyl-acetyl)-hydrazinocarbonyl)-7-oxo-1,6-diaza-bicyclo[3.2.1]oct-6-yl]ester] | 0.25 (≈ 0.585 µM) | 0.25 (≈ 0.585 µM) | 22 | 26 | 29 | 19 | 17 | 19 | 19 | 21 | 23 | 18 | 19.5 | 6.27 | 0.25 (≈ 0.585 µM) | 7.89 | 6.84 | zone of inhibition at 0.25 µg/disc (E. coli NCTC 13353; Compound alone, 0.25 μg/well): 15.5 mm; zone of inhibition at […] (E. coli M50; Escherichia coli, M50, E. coli M50, Compound + Ceftazidime (10 μg/ml), […], read-out: Diameter of Zone of Inhibition): 16 mm; zone of inhibition at 0.25 µg/disc (E. coli M50; Escherichia coli, M50, E. coli M50, Compound alone, 0.25 μg/well, read-out: Diameter of Zone of Inhibition): 15 mm
3 | O=C(Cc1ccc(OC[C@@H]2CCCN2)cc1)NNC(=O)[C@@H]1CC[C@@H]2CN1C(=O)N2OS(=O)(=O)O [Example 61, (2S,5R)-sulfuric acid mono-[2-(N′-{2-[4-((S)-pyrrolidin-2-ylmethoxy)-phenyl]-acetyl}-hydrazinocarbonyl)-7-oxo-1,6-diaza-bicyclo[3.2.1]oct-6-yl]ester] | 1 (≈ 2.01 µM) | 1 (≈ 2.01 µM) | – | – | – | – | – | – | – | – | – | – | – | 6.16 | 2 (≈ 4.02 µM) | 7.54 | 7.15 | –
4 | O=C(Cc1ccccc1O[C@H]1CCNC1)NNC(=O)[C@@H]1CC[C@@H]2CN1C(=O)N2OS(=O)(=O)O [Example 63, (2S,5R)-sulfuric acid mono-[2-(N′-{2-[2-((S)-pyrrolidin-3-oxy)-phenyl]-acetyl}-hydrazinocarbonyl)-7-oxo-1,6-diaza-bicyclo[3.2.1]oct-6-yl]ester] | 2 (≈ 4.14 µM) | 2 (≈ 4.14 µM) | – | – | – | – | – | – | – | – | – | – | – | 5.39 | 8 (≈ 16.5 µM) | 6.99 | 7.10 | –
5 | CC(OC(=O)NCCOc1ccccc1CC(=O)NNC(=O)[C@@H]1CC[C@@H]2CN1C(=O)N2OS(=O)(=O)[O-])OC(=O)C(C)C.[Na+] (stereo partly drawn) [Example 65, sodium salt of isobutyric acid 1-[2-(2-{2-oxo-2-[N′-((2S,5R)-6-sulphooxy-7-oxo-1,6-diaza-bicyclo[3.2.1]octane-2-carbonyl)-hydrazino]-ethyl}-phenoxy)-ethylcarbamoyloxy]-ethyl ester] | – | – | – | – | – | – | – | – | – | – | – | – | – | 6.27 | – | 8.30 | – | MIC [1]: >32 µg/mL; MIC ([2]; Table 2): >32 µg/mL; MIC [4]: >32 µg/mL; pIC50 ([6]; Class A K. pneumoniae ATCC 700603 (SHV 18), read-out: Beta-lactamase enzyme inhibition IC50): 8.10
